Drawing on ChEMBL document CHEMBL5131552, “Diazepinone Compounds as Sppl2a Inhibitors for Treating Autoimmune Diseases and Lymphomas” (ACS Med Chem Lett, 2022), this text covers IC50 for one compound.

The target in the assay is T1, Signal peptide peptidase-like 2A (Homo sapiens, UniProt Q8TCT8).
T1 sequence (Q8TCT8 whole entry): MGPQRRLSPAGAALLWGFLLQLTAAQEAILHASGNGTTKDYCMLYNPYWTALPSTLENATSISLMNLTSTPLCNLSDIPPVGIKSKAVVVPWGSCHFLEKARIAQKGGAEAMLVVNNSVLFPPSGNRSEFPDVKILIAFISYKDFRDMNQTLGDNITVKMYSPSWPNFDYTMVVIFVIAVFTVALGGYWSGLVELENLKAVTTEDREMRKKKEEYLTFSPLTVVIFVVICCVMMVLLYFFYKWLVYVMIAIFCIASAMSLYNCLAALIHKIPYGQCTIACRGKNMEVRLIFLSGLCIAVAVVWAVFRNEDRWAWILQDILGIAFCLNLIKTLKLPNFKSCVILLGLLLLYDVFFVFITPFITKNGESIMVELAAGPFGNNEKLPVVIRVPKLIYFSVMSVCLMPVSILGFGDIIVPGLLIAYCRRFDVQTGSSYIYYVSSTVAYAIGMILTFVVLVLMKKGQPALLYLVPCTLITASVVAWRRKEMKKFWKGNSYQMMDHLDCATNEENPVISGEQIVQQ
The assay is described as follows: Inhibition of human SPPL2A expressed in human U2OS cells assessed as nuclear mask transferring to EGFP channel using EGFP-labeled TNFalpha (aa1-76) NTF as substrate and measured after 24 hrs by Hoechst staining based translocation assay. The class given is cell-based.

Structures are written as SMILES.

Regarding `CC(C)C(=O)Nc1nc(Cl)c(NC(=O)C[C@@H](C)C(=O)N[C@@H]2C(=O)N3CCCN3Cc3ccccc32)s1`, the 50% inhibitory concentration (IC50) (commonly the concentration at which inhibition is half-maximal) is 1 nM.
